Reference: patent US20190048016A1, “SUBSTITUTED BRIDGED UREA ANALOGS AS SIRTUIN MODULATORS” (GlaxoSmithKline Intellectual Property(No.2)Limited, priority 2014, published 2019)

Target: T1, SIRT1 (Homo sapiens, UniProt Q96EB6)
T1 sequence (Q96EB6 1-747): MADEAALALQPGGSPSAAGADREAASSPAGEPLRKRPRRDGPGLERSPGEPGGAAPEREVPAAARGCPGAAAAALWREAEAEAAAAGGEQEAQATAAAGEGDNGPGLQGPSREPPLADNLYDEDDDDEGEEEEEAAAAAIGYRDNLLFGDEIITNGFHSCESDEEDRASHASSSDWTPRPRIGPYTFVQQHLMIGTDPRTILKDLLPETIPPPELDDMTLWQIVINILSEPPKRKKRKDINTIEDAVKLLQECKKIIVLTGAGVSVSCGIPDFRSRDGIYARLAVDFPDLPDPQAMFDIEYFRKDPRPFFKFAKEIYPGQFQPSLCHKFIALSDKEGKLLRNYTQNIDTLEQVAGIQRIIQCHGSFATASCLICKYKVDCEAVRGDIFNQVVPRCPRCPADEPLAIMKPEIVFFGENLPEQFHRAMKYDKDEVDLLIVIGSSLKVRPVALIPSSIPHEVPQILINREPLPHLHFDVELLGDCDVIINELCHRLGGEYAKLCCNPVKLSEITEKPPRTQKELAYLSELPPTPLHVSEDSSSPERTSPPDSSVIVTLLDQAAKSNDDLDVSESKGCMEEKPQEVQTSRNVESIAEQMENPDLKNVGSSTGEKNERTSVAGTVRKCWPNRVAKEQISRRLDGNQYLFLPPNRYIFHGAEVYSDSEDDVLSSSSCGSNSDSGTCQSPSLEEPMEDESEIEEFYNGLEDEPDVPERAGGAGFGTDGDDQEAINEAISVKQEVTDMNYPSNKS
Test: Trp mass spectrometry assay of SIRT1 activation (deacetylation of Ac-R-H-K-K(Ac)-W-NH2 peptide, OAADPR formation)
Format: biochemical
Details: Trp peptide 0.5 μM, 120 μM βNAD+, 10 nM SIRT1, 25 min, 25° C.; for Emax: 25 min, read-out: TRP MAX RESP (percent maximum fold activation relative to control = 100%)
From the text: Mass spectrometry based assays were used to identify modulators of SIRT1 activity. The TAMRA based assay utilized a peptide having 20 amino acid residues as follows: Ac-EE-K(biotin)-[…](Ac)NleSTEG-K(5TMR)-EE-NH2 (SEQ ID NO: 1), wherein K(Ac) is an acetylated lysine residue and Nle is a norleucine. The peptide was labeled with the fluorophore 5TMR (excitation 540 nm/emission 580 nm) at the C-terminus. The sequence of the peptide substrate was based on p53 with several modifications. In addition, the methionine residue naturally present in the sequence was replaced with the norleucine because the methionine may be susceptible to oxidation during synthesis and purification. The Trp based assay utilized a peptide having an amino acid residues as follows: Ac-R-H-K-K(Ac)-W-NH2 (SEQ ID NO: 2).
The Trp mass spectrometry assay was conducted as follows. 0.5 μM peptide substrate and 120 μM βNAD^+ were incubated with 10 nM SIRT1 for 25 minutes at 25° C. in a reaction buffer (50 mM HEPES pH 7.5, […], 1 mM DTT, 0.05% BSA). The SIRT1 protein was obtained by cloning the SirT1 gene into a T7-promoter containing vector, which was then expressed in BL21(DE3) bacterial cells and purified as described in further detail below. Test compound was added at varying concentrations to this reaction mixture and the resulting reactions were monitored. After the 25 minute incubation with SIRT1, 10 μL of 10% formic acid was added to stop the reaction. The resulting reactions were sealed and frozen for later mass spec analysis. The relative SIRT1 activity was then determined by measuring the amount of O-acetyl-ADP-ribose (OAADPR) formed (or, alternatively, the amount of deacetylated Trp peptide generated) by the NAD-dependent sirtuin deacetylation reaction in the presence of varying concentrations of the test compound versus control reactions lacking the test compound. The degree to which the test agent activated deacetylation by SIRT1 was expressed as EC1.5 (i.e., the concentration of compound required to increase SIRT1 activity by 50% over the control lacking test compound), and Percent Maximum Activation (i.e., the maximum activity relative to control (100%) obtained for the test compound).
A control for inhibition of sirtuin activity was conducted by adding 1 μL of 500 mM nicotinamide as a negative control at the start of the reaction (e.g., permits determination of maximum sirtuin inhibition). A control for activation of sirtuin activity was conducted using 10 nM of sirtuin protein, with 1 μL of DMSO in place of compound, to determine the amount of deacetylation of the substrate at a given time point within the linear range of the assay. This time point was the same as that used for test compounds and, within the linear range, the endpoint represents a change in velocity.
For the above assay, SIRT1 protein was expressed and purified as follows. The SirT1 gene was cloned into a T7-promoter containing vector and transformed into BL21(DE3). The protein was expressed by induction with 1 mM IPTG as an N-terminal His-tag fusion protein at 18° C. overnight and harvested at 30,000×g. Cells were lysed with lysozyme in lysis buffer (50 mM Tris-HCl, 2 mM Tris[2-carboxyethyl] phosphine (TCEP), 10 μM ZnCl2, 200 mM NaCl) and further treated with sonication for 10 min for complete lysis. The protein was purified over a Ni-NTA column (Amersham) and fractions containing pure protein were pooled, concentrated and run over a sizing column (Sephadex S200 26/60 global). The peak containing soluble protein was collected and run on an Ion-exchange column (MonoQ). Gradient elution (200 mM-500 mM NaCl) yielded pure protein. This protein was concentrated and dialyzed against dialysis buffer (20 mM Tris-HCl, 2 mM TCEP) overnight. The protein was aliquoted and frozen at −80° C. until further use.
Sirtuin-modulating compounds of Formula (I) that activated SIRT1 were identified using the assay described above and are shown below in Table 1. […]

Compound | Emax [%] | TRP Activity (EC1.5, concentration of compound required to increase SIRT1 activity by 50% over control) | TRP MAX RESP (percent maximum fold activation relative to control = 100%)
O=C(Nc1ccc(OC[C@@H](O)CO)cn1)N1c2nc(-c3cccc(C(F)(F)F)c3)c(Cl)cc2N2CCC[C@H]1C2 [Example 74, (9S)-3-chloro-N-(5-((S)-2,3-dihydroxypropoxy)pyridin-2-yl)-2-(3-(trifluoromethyl)phenyl)-8,9-dihydro-6H-5,9-methanopyrido[2,3-b][1,4]diazocine-10(7H)-carboxamide] | ≥ 150 | A (EC1.5<1 μM) | –
O=C(Nc1cncc(F)c1)N1c2nc(-c3ccnc(C(F)(F)F)c3)ccc2N2CCC[C@H]1C2 [Example 2, (9S)-N-(5-fluoropyridin-3-yl)-2-(2-(trifluoromethyl)pyridin-4-yl)-8,9-dihydro-6H-5,9-methanopyrido[2,3-b][1,4]diazocine-10(7H)-carboxamide] | ≥ 150 | A (EC1.5<1 μM) | –
O=C(Nc1cncc(OCC(O)CO)n1)N1c2nc(-c3cccc(C(F)(F)F)c3)c(Cl)cc2N2CCC[C@H]1C2 (stereo in doubt) [Example 67, (9S)-3-chloro-N-(6-((R)-2,3-dihydroxypropoxy)pyrazin-2-yl)-2-(3-(trifluoromethyl)phenyl)-8,9-dihydro-6H-5,9-methanopyrido[2,3-b][1,4]diazocine-10(7H)-carboxamide] | ≥ 150 | A (EC1.5<1 μM) | –
O=C(Nc1cc(OC[C@H](O)CO)ccn1)N1c2nc(-c3cccc(C(F)(F)F)c3)c(Cl)cc2N2CCC[C@H]1C2 [Example 82, (9S)-3-chloro-N-(4-((R)-2,3-dihydroxypropoxy)pyridin-2-yl)-2-(3-(trifluoromethyl)phenyl)-8,9-dihydro-6H-5,9-methanopyrido[2,3-b][1,4]diazocine-10(7H)-carboxamide] | ≥ 150 | A (EC1.5<1 μM) | –
O=C(Nc1ccc(F)cn1)c1cc2c(nc1N1CCCC(C(F)(F)F)C1)N[C@H]1CCCN2C1 (single isomer, unassigned) [Example 58] | ≤ 150 | – | –
O=C(Nc1ccccn1)N1c2nc(-c3ccnc(C(F)(F)F)c3)ccc2N2CCC[C@H]1C2 [Example 7, (9S)-N-(pyridin-2-yl)-2-(2-(trifluoromethyl)pyridin-4-yl)-8,9-dihydro-6H-5,9-methanopyrido[2,3-b][1,4]diazocine-10(7H)-carboxamide] | ≥ 150 | A (EC1.5<1 μM) | –
O=C(NC1CC1)c1ccc2c(n1)N(C(=O)Nc1ccccn1)[C@H]1CCCN2C1 [Example 36, (9S)-N2-cyclopropyl-N10-(pyridin-2-yl)-8,9-dihydro-6H-5,9-methanopyrido[2,3-b][1,4]diazocine-2,10(7H)-dicarboxamide] | ≥ 150 | A (EC1.5<1 μM) | –
O=C(Nc1nccc(OC[C@H](O)CO)n1)N1c2nc(-c3cccc(C(F)(F)F)c3)c(Cl)cc2N2CCC[C@H]1C2 [Example 78, (9S)-3-chloro-N-(4-((R)-2,3-dihydroxypropoxy)pyrimidin-2-yl)-2-(3-(trifluoromethyl)phenyl)-8,9-dihydro-6H-5,9-methanopyrido[2,3-b][1,4]diazocine-10(7H)-carboxamide] | ≥ 150 | A (EC1.5<1 μM) | –
Cc1cc(-c2ccc3c(n2)N(C(=O)Nc2cccnc2)[C@H]2CCCN3C2)ccn1 [Example 32, (9S)-2-(2-methylpyridin-4-yl)-N-(pyridin-3-yl)-8,9-dihydro-6H-5,9-methanopyrido[2,3-b][1,4]diazocine-10(7H)-carboxamide] | ≥ 150 | A (EC1.5<1 μM) | –
O=C(Nc1ccnc(OC[C@H](O)CO)c1)N1c2nc(-c3cccc(C(F)(F)F)c3)c(Cl)cc2N2CCC[C@H]1C2 [Example 85, (9S)-3-chloro-N-(2-((R)-2,3-dihydroxypropoxy)pyridin-4-yl)-2-(3-(trifluoromethyl)phenyl)-8,9-dihydro-6H-5,9-methanopyrido[2,3-b][1,4]diazocine-10(7H)-carboxamide] | ≥ 150 | A (EC1.5<1 μM) | –
C[C@@H](NC(=O)c1ccc2c(n1)N(C(=O)Nc1ccon1)[C@H]1CCCN2C1)C(F)(F)F [Example 40, (9S)-N10-(isoxazol-3-yl)-N2-((R)-1,1,1-trifluoropropan-2-yl)-8,9-dihydro-6H-5,9-methanopyrido[2,3-b][1,4]diazocine-2,10(7H)-dicarboxamide] | ≥ 150 | A (EC1.5<1 μM) | –
O=C(Nc1ncc(OC[C@H](O)CO)cn1)N1c2nc(-c3cccc(C(F)(F)F)c3)c(Cl)cc2N2CCC[C@H]1C2 [Example 89, (9S)-3-chloro-N-(5-((R)-2,3-dihydroxypropoxy)pyrimidin-2-yl)-2-(3-(trifluoromethyl)phenyl)-8,9-dihydro-6H-5,9-methanopyrido[2,3-b][1,4]diazocine-10(7H)-carboxamide] | ≥ 150 | A (EC1.5<1 μM) | –
Cc1ccc2c(NC(=O)N3c4nc(C(=O)NC(CO)C(F)(F)F)ccc4N4CCC[C@H]3C4)n[nH]c2n1 (single isomer, unassigned) [Example 46] | – | A (EC1.5<1 μM) | A (Fold activation≥150%)
O=C(Nc1cnc(OC[C@H](O)CO)cn1)N1c2nc(-c3cccc(C(F)(F)F)c3)c(Cl)cc2N2CCC[C@H]1C2 [Example 73, (9S)-3-chloro-N-(5-((R)-2,3-dihydroxypropoxy)pyrazin-2-yl)-2-(3-(trifluoromethyl)phenyl)-8,9-dihydro-6H-5,9-methanopyrido[2,3-b][1,4]diazocine-10(7H)-carboxamide] | ≥ 150 | A (EC1.5<1 μM) | –
O=C(Nc1ccccn1)N1c2nc(N3CCCC(C(F)(F)F)C3)ccc2N2CCC[C@H]1C2 (single isomer, unassigned) [Example 23] | – | B (EC1.5 1-25 μM) | A (Fold activation≥150%)
